According to the supplement of paper PMC10307832:

Tests used:
Experiment in all cases: relative viability (nuclei count vs DMSO), 5 days (fraction); higher = more cells survive
Ponatinib + Trametinib = compound: Cc1ccc(C(=O)Nc2ccc(CN3CCN(C)CC3)c(C(F)(F)F)c2)cc1C#Cc1cnc2cccnn12 [Ponatinib] + CC(=O)Nc1cccc(-n2c(=O)n(C3CC3)c(=O)c3c(Nc4ccc(I)cc4F)n(C)c(=O)c(C)c32)c1 [Trametinib] (partner 0.02 µM)
Outline: (§1)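 After 5 days of treatment, lung cancer cells in 1536-well plates were fixed and stained in a single step (final 0.05% Triton X-100, 1% formaldehyde, 1 ug/ml Hoechst) and their nuclei counted on 4× images. Treatment had been applied by pin tool the day after seeding as one drug alone or as a fixed anchor-drug dose with five library-drug doses (not always all listed) in √10 steps. Relative viability is the nuclei count of treated wells divided by that of vehicle wells, and values are medians of duplicate plates.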

Pazopanib + Phenformin = compound: Cc1ccc(Nc2nccc(N(C)c3ccc4c(C)n(C)nc4c3)n2)cc1S(N)(=O)=O [Pazopanib] + N=C(N)NC(=N)NCCc1ccccc1 [Phenformin] (partner 250 µM)
Outline: as §1

Ponatinib + AZD7762 = compound: Cc1ccc(C(=O)Nc2ccc(CN3CCN(C)CC3)c(C(F)(F)F)c2)cc1C#Cc1cnc2cccnn12 [Ponatinib] + NC(=O)Nc1cc(-c2cccc(F)c2)sc1C(=O)N[C@H]1CCCNC1 [AZD7762] (partner 0.2 µM)
Outline: as §1

Ponatinib + Pictilisib = compound: Cc1ccc(C(=O)Nc2ccc(CN3CCN(C)CC3)c(C(F)(F)F)c2)cc1C#Cc1cnc2cccnn12 [Ponatinib] + CS(=O)(=O)N1CCN(Cc2cc3nc(-c4cccc5[nH]ncc45)nc(N4CCOCC4)c3s2)CC1 [Pictilisib] (partner 1 µM)
Outline: as §1

Cell Line | relative viability (Ponatinib + Trametinib; first compound 0.002 µM) | relative viability (Ponatinib + Trametinib; first compound 0.006325 µM) | relative viability (Ponatinib + Trametinib; first compound 0.06325 µM) | relative viability (Ponatinib + Trametinib; first compound 0.2 µM) | relative viability (Pazopanib + Phenformin; first compound 0.01 µM) | relative viability (Pazopanib + Phenformin; first compound 0.03162 µM) | relative viability (Pazopanib + Phenformin; first compound 0.1 µM) | relative viability (Pazopanib + Phenformin; first compound 0.3162 µM) | relative viability (Pazopanib + Phenformin; first compound 1 µM) | relative viability (Ponatinib + AZD7762; first compound 0.002 µM) | relative viability (Ponatinib + AZD7762; first compound 0.006325 µM) | relative viability (Ponatinib + AZD7762; first compound 0.06325 µM) | relative viability (Ponatinib + AZD7762; first compound 0.2 µM) | relative viability (Ponatinib + Pictilisib; first compound 0.002 µM) | relative viability (Ponatinib + Pictilisib; first compound 0.006325 µM) | relative viability (Ponatinib + Pictilisib; first compound 0.06325 µM) | relative viability (Ponatinib + Pictilisib; first compound 0.2 µM)
NCI-H1975 | 0.367 | 0.445 | 0.469 | 0.294 | 0.399 | 0.437 | 0.445 | 0.471 | 0.502 | 0.599 | 0.706 | 0.726 | 0.615 | 0.311 | 0.309 | 0.408 | 0.353
CAL-12T | 0.315 | 0.311 | 0.332 | 0.239 | 0.595 | 0.616 | 0.544 | 0.664 | 0.581 | 0.548 | 0.554 | 0.611 | 0.5 | 0.425 | 0.464 | 0.515 | 0.432
NCI-H1623 |  |  |  |  | 0.584 | 0.541 | 0.58 | 0.574 | 0.595 |  |  |  |  |  |  |  | 
HCC-44 | 1 | 1.02 | 1.05 | 1.06 | 0.216 | 0.213 | 0.256 | 0.234 | 0.213 | 0.992 | 1.02 | 1.02 | 0.997 | 0.69 | 0.65 | 0.73 | 0.628
EKVX | 0.328 | 0.338 | 0.424 | 0.362 | 0.227 | 0.224 | 0.207 | 0.225 | 0.234 | 0.7 | 0.766 | 0.673 | 0.606 | 0.534 | 0.5 | 0.625 | 0.488
NCI-H1651 | 0.825 | 0.827 | 0.918 | 0.809 | 0.359 | 0.351 | 0.343 | 0.373 | 0.379 | 0.336 | 0.465 | 0.458 | 0.509 | 0.61 | 0.728 | 0.552 | 0.634
NCI-H2170 | 0.865 | 0.962 | 0.899 | 0.867 | 0.507 | 0.406 | 0.393 | 0.423 | 0.388 | 0.799 | 0.927 | 0.789 | 0.833 | 0.325 | 0.322 | 0.351 | 0.354
NCI-H1703 |  |  |  |  |  |  |  |  |  | 0.118 | 0.143 | 0.118 | 0.143 | 0.278 | 0.228 | 0.223 | 0.205
Calu-6 |  |  |  |  |  |  |  |  |  |  |  |  |  | 0.92 | 0.87 | 0.928 | 0.724
EBC-1 |  |  |  |  |  |  |  |  |  |  |  |  |  | 0.372 | 0.428 | 0.327 | 0.283
A-427 | 0.79 | 0.732 | 0.719 | 0.531 | 0.309 | 0.4 | 0.286 | 0.332 | 0.288 | 0.713 | 0.73 | 0.593 | 0.582 | 0.691 | 0.756 | 0.529 | 0.531
NCI-H2405 | 0.557 | 0.611 | 0.435 | 0.342 | 0.368 | 0.399 | 0.426 | 0.419 | 0.448 | 0.622 | 0.73 | 0.705 | 0.542 | 0.388 | 0.574 | 0.497 | 0.403
NCI-H1355 | 0.378 | 0.429 | 0.464 | 0.47 | 0.42 | 0.481 | 0.406 | 0.455 | 0.461 | 0.696 | 0.742 | 0.829 | 0.717 | 0.408 | 0.59 | 0.563 | 0.568
SK-MES-1 | 0.629 | 0.693 | 0.511 | 0.454 | 0.734 | 0.661 | 0.668 | 0.669 | 0.688 |  |  |  |  | 0.392 | 0.409 | 0.569 | 0.48
RERF-LC-KJ | 0.826 | 0.803 | 1.03 | 0.852 | 0.445 | 0.419 | 0.43 | 0.417 | 0.417 | 0.838 | 0.951 | 1.13 | 0.961 | 0.618 | 0.582 | 0.781 | 0.68
NCI-H2228 | 0.546 | 0.656 | 0.495 | 0.547 | 0.366 | 0.366 | 0.324 | 0.443 | 0.313 |  |  |  |  | 0.606 | 0.698 | 0.401 | 0.319
HOP-62 | 0.417 | 0.403 | 0.374 | 0.338 | 0.654 | 0.627 | 0.734 | 0.673 | 0.665 | 0.643 | 0.417 | 0.831 | 0.439 | 0.878 | 0.609 | 0.75 | 0.665
HARA | 0.633 | 0.581 | 0.633 | 0.443 | 0.43 | 0.363 | 0.486 | 0.467 | 0.479 | 0.382 | 0.351 | 0.31 | 0.356 | 0.443 | 0.478 | 0.498 | 0.296
PC-14 | 0.701 | 0.727 | 0.859 | 0.794 | 0.747 | 0.692 | 0.607 | 0.823 | 0.677 | 0.218 | 0.305 | 0.396 | 0.458 | 0.637 | 0.691 | 0.794 | 0.702
